# Data reported in patent US6737383B1, “Herbicidal oxadiazolidines” (priority 1999, dated 2004).
# Key:
# crabgrass = assay: Test B pre/postemergence crabgrass; format: in vivo, Digitaria sanguinalis
# Summary of the method: (§1)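 Response is a visual 0-to-10 score relative to untreated plants, where 0 means no effect and 10 means complete control, taken twelve to sixteen days after application. Treatments went onto soil at planting and onto foliage of 1- to 4-leaf plants, using a surfactant-containing non-phytotoxic solvent.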
# giant foxtail = assay: Test B pre/postemergence giant foxtail; format: in vivo, Setaria faberii
# Summary of the method: as §1
# wheat = assay: Test B pre/postemergence wheat; format: in vivo, Triticum aestivum
# Summary of the method: as §1
# duck salad = assay: Test B flood test duck salad; format: in vivo, Heteranthera limosa
# Summary of the method: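 Read-out is a visual response score from 0 (no effect) to 10 (complete control), assigned by comparison with untreated controls. Treatment was applied at the 2-leaf stage, and plants stayed in the greenhouse for twelve to sixteen days before scoring.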
# winter wheat [1] = assay: Test E winter wheat; format: in vivo, Triticum aestivum; details: Postemergence
# Summary of the method: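 Each compound, carried in a non-phytotoxic solvent blend including surfactant, was applied (postemergence: over the top of young plants at 1- to 4-leaf stage). Plants stayed in the greenhouse about 21 to 28 days before visual comparison with untreated controls.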
# blackgrass = assay: Test E blackgrass; format: in vivo, Alopecurus myosuroides; details: Preemergence
# green foxtail = assay: Test E green foxtail; format: in vivo, Setaria viridis; details: Preemergence
# Italian ryegrass = assay: Test E Italian ryegrass; format: in vivo, Lolium multiflorum; details: Preemergence
# winter wheat [2] = assay: Test E winter wheat; format: in vivo, Triticum aestivum; details: Preemergence
# wild oat = assay: Test E wild oat; format: in vivo, Avena fatua; details: Preemergence; for Plant response rating, Wild oat: 0 to 100 scale where 0 is no effect and 100 is complete control
# winter barley = assay: Test E winter barley; format: in vivo, Hordeum vulgare; details: Preemergence
# [3] = Postemergence, Rate 62 g/ha, scale 0 to 10, 0 is no effect, 10 is complete control
# [4] = Postemergence, Rate 250 g/ha, scale 0 to 10, 0 no effect, 10 complete control
# [5] = Preemergence, Rate 62 g/ha, scale 0 to 10 (0 no effect, 10 complete control)
# [6] = Preemergence, Rate 125 g/ha, scale 0 to 10 (0 no effect, 10 complete control)
# [7] = Preemergence, Rate 250 g/ha, scale of 0 to 10 where 0 is no effect and 10 is complete control
# [8] = Preemergence, Rate 500 g/ha, scale 0 (no effect) to 10 (complete control)
# [9] = Rate 125 g/ha, Postemergence, scale 0 to 10, 0 no effect, 10 complete control
# [10] = Rate 500 g/ha, Postemergence, scale 0 to 10, 0 no effect, 10 complete control
# [11] = Rate 1000 g/ha, 0 to 100 scale, 0 is no effect and 100 is complete control
# [12] = Rate 500 g/ha, 0 to 100 scale where 0 is no effect and 100 is complete control
# [13] = Rate 1000 g/ha, 0 to 100 scale where 0 is no effect and 100 is complete control
# [14] = Postemergence, Rate 125 g/ha, scale of 0 to 10 where 0 is no effect and 10 is complete control
# [15] = Preemergence, Rate 62 g/ha, scale of 0 to 10 where 0 is no effect and 10 is complete control
# [16] = Preemergence, Rate 125 g/ha, 0 is no effect, 10 is complete control
# [17] = Preemergence, Rate 250 g/ha, scale 0 to 10, 0 is no effect, 10 is complete control
# [18] = Preemergence, Rate 500 g/ha, scale 0 to 10 (0 no effect, 10 complete control)
# [19] = Rate 62 g/ha, Postemergence, scale of 0 to 10 where 0 is no effect and 10 is complete control
# [20] = Rate 250 g/ha, Postemergence, scale 0 to 10, 0 is no effect, 10 is complete control
# [21] = Rate 500 g/ha, Postemergence, scale 0 to 10
compound,measurement,setting,value
Cc1nn(C)c(C)c1-n1c(=O)on(C(=O)N(c2ccc(F)cc2)C(C)C)c1=O [Compound 75],Crabgrass plant response rating,crabgrass; [3],0
same,Crabgrass plant response rating,crabgrass; [4],9
same,Crabgrass plant response rating,crabgrass; [5],3
same,"Plant response rating, Crabgrass",crabgrass; [6],8
same,"Plant response rating, Crabgrass",crabgrass; [7],10
same,Crabgrass plant response rating,crabgrass; [8],10
same,Crabgrass plant response rating,crabgrass; [9],2
same,Crabgrass plant response rating,crabgrass; [10],9
same,Giant foxtail plant response rating,giant foxtail; [3],3
same,Giant foxtail plant response rating,giant foxtail; [4],8
same,Giant foxtail plant response rating,giant foxtail; [5],6
same,"Plant response rating, Giant foxtail",giant foxtail; [6],9
same,"Plant response rating, Giant foxtail",giant foxtail; [7],9
same,Giant foxtail plant response rating,giant foxtail; [8],10
same,Giant foxtail plant response rating,giant foxtail; [9],6
same,Giant foxtail plant response rating,giant foxtail; [10],8
same,Wheat plant response rating,wheat; [3],0
same,Wheat plant response rating,wheat; [4],2
same,Wheat plant response rating,wheat; [5],0
same,"Plant response rating, Wheat",wheat; [6],0
same,"Plant response rating, Wheat",wheat; [7],0
same,Wheat plant response rating,wheat; [8],3
same,Wheat plant response rating,wheat; [9],0
same,Wheat plant response rating,wheat; [10],4
same,Ducksalad plant response rating,duck salad; [3],0
same,Ducksalad plant response rating,"duck salad; Rate 125 g/ha, Postemergence section (flood test species), scale 0 to 10, 0 no effect, 10 complete control",0
same,Ducksalad plant response rating,"duck salad; Rate 500 g/ha, listed under Postemergence (flood test species), scale 0 to 10, 0 no effect, 10 complete control",0
same,Ducksalad plant response rating,"duck salad; flood test, listed under Postemergence, Rate 250 g/ha, scale 0 to 10, 0 no effect, 10 complete control",0
same,"Plant response rating, Wheat (winter)","winter wheat [1]; Rate 250 g/ha, 0 to 100 scale (0 no effect, 100 complete control)",60
same,"Plant response rating, Wheat (winter)",winter wheat [1]; [11],70
same,"Plant response rating, Wheat (winter)","winter wheat [1]; Rate 500 g/ha, 0 to 100 scale, 0 no effect, 100 complete control",75
same,"Plant response rating, Blackgrass","blackgrass; Rate 250 g/ha, 0 to 100 scale",20
same,"Plant response rating, Blackgrass",blackgrass; [12],40
same,"Plant response rating, Blackgrass",blackgrass; [13],85
same,"Plant response rating, Green foxtail","green foxtail; Rate 250 g/ha, 0 to 100 scale",60
same,"Plant response rating, Green foxtail",green foxtail; [12],60
same,"Plant response rating, Green foxtail",green foxtail; [13],60
same,"Plant response rating, I. Ryegrass","Italian ryegrass; Rate 250 g/ha, 0 to 100 scale",20
same,"Plant response rating, I. Ryegrass",Italian ryegrass; [12],30
same,"Plant response rating, I. Ryegrass",Italian ryegrass; [13],50
same,"Plant response rating, Wheat (winter)","winter wheat [2]; Rate 250 g/ha, 0 to 100 scale",10
same,"Plant response rating, Wheat (winter)",winter wheat [2]; [12],20
same,"Plant response rating, Wheat (winter)",winter wheat [2]; [13],65
same,"Plant response rating, Wild oat",wild oat; Rate 1000 g/ha,10
same,"Plant response rating, Barley (winter)","winter barley; Rate 250 g/ha, 0 to 100 scale",10
same,"Plant response rating, Barley (winter)",winter barley; [12],20
same,"Plant response rating, Barley (winter)",winter barley; [13],60
CC1CCCCC1n1c(=O)on(C(=O)N(c2ccc(F)cc2F)C(C)C)c1=O (centres unmarked) [Compound 172],Crabgrass plant response rating,crabgrass; [14],3
same,Crabgrass plant response rating,crabgrass; [15],7
same,Crabgrass plant response rating (0 to 10 scale),crabgrass; [16],8
same,Crabgrass plant response rating,crabgrass; [17],10
same,Crabgrass plant response rating,crabgrass; [18],10
same,Crabgrass plant response rating,crabgrass; [19],0
same,"Plant response rating, Crabgrass",crabgrass; [20],9
same,Crabgrass plant response rating,crabgrass; [21],9
same,Giant foxtail plant response rating,giant foxtail; [14],0
same,Giant foxtail plant response rating,giant foxtail; [15],8
same,Giant foxtail plant response rating (0 to 10 scale),giant foxtail; [16],9
same,Giant foxtail plant response rating,giant foxtail; [17],10
same,Giant foxtail plant response rating,giant foxtail; [18],10
same,Giant foxtail plant response rating,giant foxtail; [19],0
same,"Plant response rating, Giant foxtail",giant foxtail; [20],0
same,Giant foxtail plant response rating,giant foxtail; [21],0
same,Wheat plant response rating,wheat; [15],0
same,Wheat plant response rating (0 to 10 scale),wheat; [16],0
same,Wheat plant response rating,wheat; [17],0
same,Wheat plant response rating,wheat; [18],0
same,"Plant response rating, Wheat",wheat; [20],0
same,Wheat plant response rating,wheat; [21],0
same,"Plant response rating, Wheat (winter)",winter wheat [1]; [11],50
same,"Plant response rating, Wheat (winter)","winter wheat [1]; Rate 500 g/ha, 0 to 100 scale, 0 is no effect, 100 is complete control",40
same,Blackgrass plant response rating (0 to 100 scale),blackgrass; Rate 250 g/ha,50
same,"Plant response rating, Blackgrass",blackgrass; [12],60
same,"Plant response rating, Blackgrass",blackgrass; [13],80
same,Green foxtail plant response rating (0 to 100 scale),green foxtail; Rate 250 g/ha,60
same,"Plant response rating, Green foxtail",green foxtail; [12],85
same,"Plant response rating, Green foxtail",green foxtail; [13],100
same,I. Ryegrass plant response rating (0 to 100 scale),Italian ryegrass; Rate 250 g/ha,30
same,"Plant response rating, I. Ryegrass",Italian ryegrass; [12],65
same,"Plant response rating, I. Ryegrass",Italian ryegrass; [13],80
same,Wheat (winter) plant response rating (0 to 100 scale),winter wheat [2]; Rate 250 g/ha,10
same,"Plant response rating, Wheat (winter)",winter wheat [2]; [12],20
same,"Plant response rating, Wheat (winter)",winter wheat [2]; [13],30
same,Wild oat plant response rating (0 to 100 scale),wild oat; Rate 250 g/ha,30
same,"Plant response rating, Wild oat",wild oat; Rate 500 g/ha,40
same,"Plant response rating, Wild oat",wild oat; Rate 1000 g/ha,50
same,Barley (winter) plant response rating (0 to 100 scale),winter barley; Rate 250 g/ha,40
same,"Plant response rating, Barley (winter)",winter barley; [12],40
same,"Plant response rating, Barley (winter)",winter barley; [13],20
